According to patent US9345755B2, “Composition and methods for treating melanoma” (University of Virginia Patent Foundation, priority 2012, dated 2016):
“Also recorded” adds a separate entry of the source. Ends that are not written are not given here.

Columns and labels:
[1] = Stability of peptide against alkaline hydrolysis at pH 12; assay type: physicochemical; details: pH 12, NaOH
Source text: It will be sterile-filtered.

[2] = test system: high-risk ovarian cancer patients; details: human, in vivo; cited from earlier work

Protocol for physchem: Vaccines are prepared by solubilization of each peptide in aqueous solutions, then sterile filtration, mixing, and vialing at 600 mcg per vial.
It is then sterile-filtered. […] It is then sterile-filtered.
The solubilization regimen was difficult to establish for the 8 long peptides.
These 3 sterile solutions will be combined and will be brought up to a concentration of 600 mcg/ml of each peptide using sterile water, lactated ringer's solution or normal saline solution. The pH of the mixture will be about 8-8.50, for a concentration of 600 micrograms per ml of each peptide.

solubility (physchem) | Substance | further results
 | SMHNALHIYMDGTMSQVQGSANDPIFLLHH [Peptide 3] | stability (hydrolysis/degradation) of peptide [1]: stable at this pH and is not hydrolyzed or degraded; also recorded: hydrolysis is not an issue and the peptide is intact
 | NY-ESO-179-108: long peptide, residues 79-108 of cancer-testis antigen NY-ESO-1 (GARGPESRLLEFYLAMPFATPMEAELARRS; UniProt P78358 79-108, looked up, fragment) | CD4 T cell responses after vaccination [2]: induces CD4 T cell responses
20 mg/mL | VPLAHSSSAFTIMDQVPFSVSVSQLRALDG [Peptide 4] | 
10 mg/mL | LLHLAVIGALLAVGATKVPRNQDWLGVSRQL [Peptide 6] | 
